Test [1] deals with T1, MC4 (Homo sapiens, UniProt P32245). Description: Melanocortin receptor whole cell cAMP accumulation assay (MC4R). Details: expressed in transfected cells; host or cells: HEK 293 (stably transfected). As to conditions: for Relative Eff.: relative efficacy compared to NDP-alpha-MSH, defined as a 100% agonist. Type of test: cell-based. On the procedure: Melanocortin Receptor Whole Cell cAMP Accumulation Assay
These are serially diluted in 100% DMSO. The compound plate is further diluted 1:200 in compound dilution buffer (HBSS-092, 1 mM Ascorbic Acid, 1 mM IBMX, 0.6% DMSO, 0.1% BSA). […] Transfer 20 μl from this plate into four PET 96-well plates (all assays are performed in duplicate for each receptor).
[…] cells stably transfected with the MC3R and MC4R were grown in DMEM containing 10% FBS and 1% Antibiotic/Antimycotic Solution. On the day of the assay the cells were dislodged with enzyme free cell dissociation solution and resuspended in cell buffer (HBSS-092, 0.1% BSA, 10 mM HEPES) at 1×e6 cells/ml. Add 40 μl of cells/well to the PET 96-well plates containing 20 ul diluted compound and control. Incubate @ 37° C. in a waterbath for 20 minutes. Stop the assay by adding 50 μl Quench Buffer (50 mM Na Acetate, 0.25% Triton X-100).
Radioligand binding assays were run in SPA buffer (50 mM Sodium Acetate, 0.1% BSA). The beads, antibody and radioligand were diluted in SPA buffer to provide sufficient volume for each 96-well plate. […] The plates were counted in a Wallac MicroBeta counter after a 12-hour incubation.
The data was converted to pmoles cAMP using a standard curve assayed under the same conditions. The data was analyzed using Activity Base software to generate agonist potencies (EC50) and percent relative efficacy data to NDP-aMSH.

For test [2], the target named is T1, MC4. Description: Radioligand binding assay (125I-NDP-alpha-MSH competition, SPA, membranes of transfected HEK 293 cells). On the set-up: expressed in transfected cells; host or cells: HEK 293 (stably transfected), membrane preparation. The protocol:
HEK 293 cells transfected with human or rat melanocortinin receptors are grown either as adherent monolayers or suspension culture. Monolayer cells are grown in roller bottle cultures at 37° C. and 5% CO2/air atmosphere in a 3:1 mixture of Dulbecco's modified Eagle medium (DMEM) and Ham's F12 containing 25 mM […], 100 units/ml penicillin G, 100 microgram/ml streptomyocin, 250 nanogram/ml amphoterin B, 300 microgram/ml genticin and supplemented with 5% fetal bovine serum. […] Cells are harvested by centrifugation, washed in PBS, and pellets are stored frozen at −80° C. until membrane preparations.
The cell pellets are resuspended in 10 volumes of membrane preparation buffer (i.e., 1 g pellet to 10 ml buffer) having the following composition: 50 mM Tris pH 7.5 @ 4° C., 250 mM sucrose, 1 mM MgCl2, Complete® EDTA-free protease inhibitor tablet (Boehringer Mannheim), and 24 micrograms/ml DNase I (Sigma, St. Louis, Mo.). The cells are homogenized with a motor-driven dounce using 20 strokes, and the homogenate is centrifuged at 38,000×g at 4° C. for 40 minutes. The pellets are resuspended in membrane preparation buffer at a concentration of 2.5–7.5 mg/ml and 1 milliliter aliquots of membrane homogenates are quickly frozen in liquid nitrogen and then stored at −80° C.
Solutions of a compound of formula I (300 picomolar to 30 micromolar) or unlabelled NDP-alpha-MSH (1 picomolar to 100 nanomolar) are added to 150 microliters of membrane binding buffer to yield final concentrations (listed in parantheses). The membrane binding buffer has the following composition: 25 mM HEPES pH 7.5; 10 mM CaCl2; 0.3% BSA). […] Additionally, fifty microliters of SPA beads (5 mg/ml) are added and the resulting mixture is agitated briefly and incubated for 10 hours at room temperature. The radioactivity is quantified in a Wallac Trilux Microplate Scintillation counter. IC50 values obtained in competition assays are converted to affinity constants (Ki values) using the Cheng-Prusoff equation: Ki=IC50/(1+D/Kd).

In test [3] the test system is rodents. As to conditions: injected intracerebroventricularly (ICV); NPY, ob/ob, agouti, fasted models; cited from earlier work.
[4] abbreviates: MC4 agonist potency, read-out: MC4 EC50.
Where [5] appears, read: 125I-NDP-alpha-MSH competition, Ki from IC50 by Cheng-Prusoff, read-out: MC4 Binding Ki.

pEC50, pKi: −log10 of the molar value. Structures can show the parent of a compound that is named as a salt. Where two headings read alike, the source gives them in different places.

T1 sequence (P32245 whole entry): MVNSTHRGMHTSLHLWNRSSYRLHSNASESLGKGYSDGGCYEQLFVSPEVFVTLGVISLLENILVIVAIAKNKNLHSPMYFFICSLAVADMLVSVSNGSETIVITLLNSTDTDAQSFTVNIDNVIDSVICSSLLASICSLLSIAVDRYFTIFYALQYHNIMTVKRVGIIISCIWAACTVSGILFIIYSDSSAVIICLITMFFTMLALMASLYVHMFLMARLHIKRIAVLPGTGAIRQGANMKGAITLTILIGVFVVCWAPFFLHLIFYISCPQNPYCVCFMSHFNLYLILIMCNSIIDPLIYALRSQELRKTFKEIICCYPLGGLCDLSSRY

For the compound `O=C(CC1NCc2ccccc21)N[C@H](Cc1ccc(Cl)cc1)C(=O)N1CCN(C(CC2CCCCC2)CN2CCOCC2)CC1` (mixture of isomers) [Example N38, N-{1-(4-chloro-benzyl)-2-[4-(1-cyclohexylmethyl-2-morpholine-4-yl-ethyl)-piperazin-1-yl]-2-oxo-ethyl}-2-(2,3-dihydro-1H-isoindol-1-yl)-acetamide tri(trifluoroacetate) salt], in test [1], the negative logarithm of the EC50 (pEC50) (usually the EC50 on a negative log10 scale, so that one unit is a factor of ten) is 7.16 and the “Relative Eff.” value came to 115.6. Moreover, the negative-log Ki (pKi) – broadly, the Ki on a negative log10 scale, so that one unit is a factor of ten – in test [2] was 8.00.
Take `CC(C)CN(CC(C1CCCCC1)N1CCN(C(=O)C(Cc2ccc(Cl)cc2)NC(=O)CC2NCc3ccccc32)CC1)S(C)(=O)=O` (single isomer, unassigned) [Example N71, N-(1-(4-Chloro-benzyl)-2-{4-[1-cyclohexyl-2-(isobutyl-methanesulfonyl-amino)-ethyl]-piperazin-1-yl}-2-oxo-ethyl)-2-(2,3-dihydro-1H-isoindol-1-yl)-acetamide dihydrochloride salt]: the negative-log EC50 (pEC50) in test [1] (setting [4]) was 8.08. In addition, the “Relative Eff.” value in test [1] is recorded as 102.6. Also, in test [2] (setting [5]), the pKi was 7.95.
Take `CCN(CC)CC(c1ccccc1F)N1CCN(C(=O)[C@@H](Cc2ccc(Cl)cc2)NC(=O)[C@H]2Cc3ccccc3C(C)(C)N2)CC1` (some centres unmarked) [Compd 814]: in test [1] (setting [4]), the pEC50 was 6.90. Further, the “Relative Eff.” value in test [1] is given as 108.6. Also, the negative logarithm of the Ki (pKi) in test [2] (setting [5]) was 7.74.
On the same counts, the results for `CC(C)CC(CC(C)C)N1CCN(C(=O)[C@@H](Cc2ccc(Cl)cc2)NC(=O)CC2NCc3ccccc32)CC1.Cl.Cl` (some centres unmarked) [Compd 3251] are 7.12, 67.0 and 8.24.
For SHU-9119, the food intake entry in test [3] is “reverses this effect and can induce hyperphagia”.
As for melanotanin-II [MT-II], in test [3], the food intake entry is “reduces food intake”.

(Values after patent US7169777B2, “Melanocortin receptor agonists” (Eli Lilly and Company, priority 2001, dated 2007).)
